Experimental data published in patent US20060025482A1, “(-)-Hydroxycitric acid for the modulation of angiotensin-converting enzyme” (priority 2004, published 2006).

Assays:
Sprague-Dawley Rats = test: Systolic blood pressure by tail plethysmography in Sprague-Dawley rats on special diet (Example 1); format: in vivo, rat; details: SD rats
Source text: (§1) A know effect of ACE inhibitors is a reduction in elevated systolic blood pressure. To test this, the following protocol was employed: Sprague-Dawley Rats (SD), approximately 8 weeks of age werw obtained. Six groups of eight male SD received the same […] rat chow manufactured to specifications. The special diets derived 30% of calories from fats (one half from lard and one half from corn oil), 50% from carbohydrates, and 20% from proteins. Twenty percent of dietary calories was derived from sucrose and the preponderance of the remaining carbohydrate calories was derived from dextrin. During weekdays (M-F), each group was gavaged twice daily with a solution containing a commercial source of potassium hydroxycitrate (KHCA), a commercial source of potassium-calcium hydroxycitrate (KCaHCA), or a pre-commercial non-salt source of potassium-magnesium hydroxycitrate (KMgHCA, listed as KMgHCA L-Low, M-Intermediate or H-High depending upon the dose). Over the weekends (S-S), a similar quantity of the weekday daily dose was added to twenty grams of food, that is, an amount of food estimated to be close to the daily intake of the animals. At initiation of study and four weeks, and eight weeks later, bloods were drawn from all SD for routine blood chemistries. Body weight (BW) was measured weekly and systolic blood pressure (SBP) was measured every two weeks.
The HCA dosages in the arms varied. The dosage used in the KHCA arm was extrapolated from the recommended 1,500 mg HCA per day for humans consuming a normal diet (i.e., ≧30% calories derived from fats) advocated by a commercial seller of KHCA and claimed to have produced acceptable clinical results. The approximate equivalent for the rat model is 35.4 mg HCA per day, which we increased to 38.4 mg HCA per day for convenience in employing a 48% HCA potassium salt and to remain safely on the high side in practice. For the sake of comparison, a commercial KCaHCA salt (60% HCA) was chosen and delivered at an HCA dosage level of 48 mg per day, which slightly exceeded the lowest dosage of HCA found to be efficacious for inhibition of weight gain in rats in the early pharmaceutical trials (45.4 mg/day) using pure trisodium hydroxycitrate and a very low fat diet. The design thus utilized a realistic diet with rough equivalents of the HCA dosages claimed to be effective in both the human and rat models.
The experimental KMgHCA dosings varied considerably from that of the other two salts. […] As a result, the recalculated HCA doses for the experimental compound were a low dose (KMgHCA L) of 14 mg, an intermediate dose (KMgHCA M) of 28 mg and a high dose (KMgHCA H) of 84 mg per day. The difficulty in calculating the HCA content in this case is not unique inasmuch as there is as of yet no universally accepted method for calculating the HCA content of the various salts. Again, preparations yielded the equivalent of 48 mg HCA per day from KCaHCA and 38.4 mg HCA per day from KHCA.
(§2) Systolic Blood Pressure (SBP): SBP was estimated by tail plethysmography in unanesthetized rats after a brief warming period. Readings were taken approximately one minute apart. To be accepted, SBP measurements had to be virtually stable for a minimum of three consecutive readings.
(§3) Statistical Analyses: Results are presented as mean±SEM. Many statistics were performed by one-way analysis of variance (ANOVA). SBP and BW were examined by two-way analyses of variance (one factor being dietary group and the second factor being time of examination). Where a significant effect of diet was detected by ANOVA (p<0.05), the Dunnett t test was used to establish which differences between means reached statistical significance (p<0.05). If a Student's t test was employed, this is noted.

[1] = Blood chemistries in Sprague-Dawley rats (Example 1); format: in vivo, rat; details: SD rats; for average insulin concentrations compared to control: differences not significant using ANOVA, all dose groups
Source text: as §1, §3

[2] = Earlier study of SBP with a KCaHCA salt, not described; format: in vivo; details: 120 mg HCA per day
[3] = twice a day; diet consisting of 70% glucose and 1% fat; cited from earlier work
[4] = tested on: Spontaneously hypertensive rats (SHR); test: Losartan challenge: SBP response in SHR; format: in vivo, rat
Source text: Many factors can positively influence blood pressure, e.g., diuretics, antioxidants, regulators of sympathetic/parasympathetic tone, compounds that improve insulin sensitivity and so forth. Therefore, losartan, an angiotensin-2 receptor blocker, was utilized to discover whether the ACE system was involved in the results discussed in Example 1.
(§4) Spontaneously hypertensive rats (SHR) were placed on a diet composed of regular rat chow (60% w/w) and table sugar (40% w/w). This diet reliably elevates blood pressure in this animal model. One group received 100 mg HCA per day in the form of a new potassium-magnesium hydroxycitrate (different from that used in Example 1) via an added 5 g HCA per kg of food mix. Systolic blood pressure and body weight were tested as in Example 1 on a weekly basis.
When losartan was injected, the SBP of both groups decreased. At 6 hours, the SBP were essentially the same. […] Thus, HCA appears to decrease angiotensin-2 in rats and to lower elevated SBP. Although insulin regulation likely is a factor in the blood pressure modulating effect of HCA, this evidence argues that inhibition of ACE is also important. […]

[5] = treated rats; cited from earlier work
[6] = Body weight of SHR on chow/table sugar diet (Example 2); format: in vivo, rat; details: 100 mg HCA per day in food, p=0.084
Experimental: as §4

[7] = tested on: Spontaneously hypertensive rats (SHR); test: Systolic blood pressure of SHR on chow/table sugar diet (Example 2); format: in vivo, rat; details: 100 mg HCA per day in food, control SBP steadily increased
Experimental: as §2, §4

[8] = tested on: Spontaneously hypertensive rats (SHR); test: Glucose tolerance test with 0.1 unit regular insulin injected along with glucose in SHR; format: in vivo, rat; details: 100 mg HCA per day, at 7.5 minutes
Experimental: as §4
This was viewed as likely positive in that rats gain weight steadily as long as they remain in good health and the SHR at middle age, as used here, lives a relatively short life and its health deteriorates as its blood pressure rises. […] A glucose tolerance test was administered in which 0.1 unit of regular insulin was injected along with glucose. […] This finding indicates increased insulin sensitivity. (FIG. 6)

[9] = gavaged twice daily, KHCA 38.4 mg HCA per day, KCaHCA 48 mg HCA per day
[10] = high dose (KMgHCA H) 84 mg HCA per day
[11] = intermediate dose (KMgHCA M) 28 mg HCA per day

For `O=C([O-])CC(O)(C(=O)[O-])C(O)C(=O)[O-].[K+].[K+].[K+]` (centres unmarked) [KHCA, potassium hydroxycitrate], the “SBP compared to control at the end of eight weeks” value (from here on “SBP compared to control at the end”) (Sprague-Dawley Rats; [9]) was “significant decreases”, the “insulin, control versus treatment, Student's t test” value ([1]; KHCA 38.4 mg HCA per day) was “showed significance” and the “average insulin concentrations compared to control” value [1] was “lower”.

In the case of `O=C([O-])CC(O)(C(=O)[O-])C(O)C(=O)[O-].[Ca+2].[K+]` (centres unmarked) [KCaHCA, potassium-calcium hydroxycitrate], the “SBP compared to control at the end” value (Sprague-Dawley Rats; [9]) is reported as “significant decreases”, the “average insulin concentrations compared to control” value [1] is reported as “did not show a trend toward lower circulating insulin” and the “SBP in earlier study” value [2] is reported as “decrease in SBP”.

For `O=C([O-])CC(O)(C(=O)[O-])C(O)C(=O)[O-].[Na+].[Na+].[Na+]` (centres unmarked) [trisodium hydroxycitrate], the “lowest dose in rats shown to be efficacious in reducing weight gain” value [3] is listed as 0.33 mmol/kg.

For `CCCCc1nc(Cl)c(CO)n1Cc1ccc(-c2ccccc2-c2nn[nH]n2)cc1` [losartan, reference compound], the “SBP after losartan injection” value ([4]; both groups (control and KMgHCA)) was “decreased”.

For `O=C(O)CC(O)(C(=O)O)C(O)C(=O)O` (single isomer, unassigned; (-)) [(−)-hydroxycitrate, (−)-Hydroxycitric acid], the “plasma levels of glucose, insulin, or free fatty acids relative to controls” value [5] is given as “no significant differences”.

With `O=C([O-])CC(O)(C(=O)[O-])C(O)C(=O)[O-].[K+].[Mg+2]` (centres unmarked) [KMgHCA, potassium-magnesium hydroxycitrate] the “SBP compared to control at the end” value (Sprague-Dawley Rats; [10]) was “significant decreases”, the “lowering of SBP at the end of 8 weeks” value (Sprague-Dawley Rats; [10]) was “over 10 mm Hg” and the “SBP compared to control at the end” value (Sprague-Dawley Rats; [11]) was “significant decreases”. The “lowering of SBP at the end of 8 weeks” value (Sprague-Dawley Rats; [11]) was “over 10 mm Hg”, the “SBP at the end of 8 weeks” value (Sprague-Dawley Rats; low dose (KMgHCA L) 14 mg HCA per day) was “essentially did nothing” and the “insulin, control versus treatment, Student's t test” value ([1]; KMgHCA H 84 mg HCA per day, p=0.058) was “at the margin of significance”. The “average insulin concentrations compared to control” value [1] was “lower”, the “body weight over three weeks” value [6] was “trend for an increase” and the SBP from baseline [7] was “decrease in SBP from baseline”. For the same compound, the “glucose appearance in bloodstream in glucose tolerance test” value [8] was “significantly lesser rise” and the “decrease in SBP after losartan injection” value ([4]; 100 mg HCA per day, at 6 hours, versus control) was −21.7±7.0.
